Experimental data published in patent US20030109418A1, “Methods for identifying compounds for inhibition of neoplastic lesions, and pharmaceutical compositions containing such compounds” (priority 1999, published 2003).
Counter-ions that a name gives are not always drawn.

How the values were obtained:
[1] = tested on: LNCaP prostate tumor cell line; experiment: Histone-associated DNA fragmentation in prostate tumor cells; assay type: cell-based; settings: 50 μM free base, after 24 hours, sustained up to 4 days
Method: The androgen-sensitive prostate tumor cell line, LNCaP (from ATCC (Rockville, Md.)) was propogated under standard conditions using […] medium containing 5% fetal calve serum and 2 mM glutamine. Primary prostate epithelial cell cultures (PrEC) derived from normal prostate (from Clonetics Inc. (San Diego, Calif.)) were grown under the same conditions as the tumor cell line except a serum-free medium optimized for the growth of such cultures was used (Clonetics Inc). For the experiments, LNCaP or PrEC cells were seeded in 96 well plates at a density of 10,000 cells per well. After 24 hours, the cells were treated with either vehicle (0.1% DMSO) or 50 μM Compound I (free base) solubilized in DMSO. After various drug treatment times (4, 24, 48, 72, or 99 hours) the cells were lysed and processed for measurement of histone-associated DNA as an indicator of apoptotic cell death (see, Piazza et al., Cancer Research 57: 2452-2459, 1997).
This is in marked contrast to conventional chemotherapeutics that induce apoptosis or necrosis in rapidly growing normal and neoplastic cells alike.

MDA-MB-435 = experiment: Growth inhibition, neutral red assay, MDA-MB-435; assay type: cell-based, human; settings: free base, five days
Method: (§1) Compound I's activity is not confined to activity against colon cancer cell lines or animal models of colon cancer. It has a broad range of anti-neoplastic effects in various neoplastic cell lines. Various types of human cancer cell lines were propagated under sterile conditions in RPMI 1640 medium with 10% fetal bovine serum, 2 mM L-glutamine and sodium bicarbonate. To determine growth inhibitory effects of Compound I, cells were seeded in 96-well plates at a density of 1000 cells per well. Twenty-four hours after plating, the cells were dosed with various concentrations of the free base of Compound I solubilized in DMSO (final concentration 0.1%). The effect of the drug on tumor cell growth was determined using the neutral red cytotoxicity assay following five days of continuous treatment. Neutral red is a dye that is selectively taken up by viable cells by an ATP-dependent transport mechanism.

HT-29 = experiment: Growth inhibition, neutral red assay, HT-29; assay type: cell-based, human; settings: free base, five days
Method: as §1

[2] = tested on: SW-480 colon adenocarcinoma cells; experiment: Apoptosis induction determined by morphology, SW-480; assay type: cell-based, human
Description: Following treatment with a compound, cultures can be assayed for apoptosis and necrosis by florescent microscopy following labeling with acridine orange and ethidium bromide. The method for measuring apoptotic cell number has previously been described by Duke & Cohen, “Morphological And Biochemical Assays Of Apoptosis,” Current Protocols In Immunology, Coligan et al., eds., 3.17.1-3.17.16 (1992, which is incorporated herein by reference).
For example, floating and attached cells can be collected by trypsinization and washed three times in PBS. Aliquots of cells can be centrifuged. The pellet can then be re-suspended in media and a dye mixture containing acridine orange and ethidium bromide prepared in PBS and mixed gently. The mixture can then be placed on a microscope slide and examined for morphological features of apoptosis.
In addition, the percent apoptosis for Compound I in SW-480 is shown in Table 12 at various drug concentrations.

[3] = tested on: aberrant crypt foci (ACF) in colon; experiment: Azoxymethane-induced aberrant crypt foci model; assay type: in vivo, rat; settings: for Mean ACF/colon (+ SE): free base, 5 weeks
Method: The growth inhibition IC50 value obtained for Compound I was 0.7 μM in the SW-480 cell line. […] This established rodent model of azoxymethane (“AOM”)-induced carcinogenesis was used to assess the effects of Compound I (free base and salt) on colon cancer development in vivo. ACF are precursors to colonic tumors, and ACF inhibition is predictive of chemo-preventive efficacy.
In the rats in this experiment, ACF initiation was achieved by two consecutive weekly injections of the carcinogen. Compound I was administered one week prior to ACF initiation and for the duration of the experiment. ACFs were scored after 5 weeks of treatment. Compound I was administered orally to male Fisher 344 rats in the rat chow. Daily food consumption (mg/kg body weight) varied over the course of the study, and therefore Compound I dose was expressed a grams per kg of diet to provide a basis of comparison between doses. […] The experimental groups gained less weight than the controls, which was indicative of bioavailability. However, the weight differences were less than 10% and not considered to affect ACF formation.
The free base of Compound I inhibited ACF formation as measured by a reduction of crypts per colon. With the exception of the low dose group (only 0.5 g/kg diet), the differences between treatment and control groups were substantial, and statistically significant in the case of the 1.0 and 2.0 g/kg diet group.

NCI-H322M = experiment: Growth inhibition, neutral red assay, NCI-H322M; assay type: cell-based, human; settings: free base, five days
Method: as §1

MDA-MB-231 = experiment: Growth inhibition, neutral red assay, MDA-MB-231; assay type: cell-based, human; settings: free base, five days
Method: as §1

[4] = tested on: panel of cultured human cell lines derived from various tissue origins; experiment: Growth inhibition, neutral red assay, whole panel; assay type: cell-based; settings: all cell lines of the panel, read-out: GI50 value calculated for all cell lines
Method: as §1

[5] = dog, in vivo
NCI-H23 = experiment: Growth inhibition, neutral red assay, NCI-H23; assay type: cell-based, human; settings: free base, five days
Method: as §1

CC1=C(CC(=O)NCc2ccccc2)c2cc(F)ccc2/C1=C\c1ccncc1 [Compound I, (Z)-5-fluoro-2-methyl-(4-pyridylidene)-3-(N-benzyl)indenylacetamide hydrochloride]
histone-associated fragmented DNA in LNCaP [1]: significant increase in fragmented DNA | GI50 (MDA-MB-435; Homo sapiens, MDA-MB-435, 120 h): 1.6 µM | GI90 μM, MDA-MB-435 (MDA-MB-435): 2.3 µM | GI50 (HT-29; Homo sapiens, HT-29, 120 h): 2.1 µM | GI90 μM, HT-29 (HT-29): 8.0 µM | % Apoptosis ([2]; 0.35 μM): 16% | % Apoptosis ([2]; 0.7 μM): 27% | % Apoptosis ([2]; 1.5 μM): 88% | ACF % Control ([3]; 0.5 g/kg diet): 100% | Mean ACF/colon (+ SE) ([3]; 0.5 g/kg diet): 149 ± 14 | ACF % Control ([3]; 1 g/kg diet): 75% | Mean ACF/colon (+ SE) ([3]; 1 g/kg diet): 111 ± 9 | ACF % Control ([3]; 1.5 g/kg diet): 89% | Mean ACF/colon (+ SE) ([3]; 1.5 g/kg diet): 132 ± 4 | ACF % Control ([3]; 2.0 g/kg diet): 72% | Mean ACF/colon (+ SE) ([3]; 2.0 g/kg diet): 107 ± 15 | body weight differences versus controls ([3]; male Fisher 344 rats, drug in chow): less than 10% | GI50 (NCI-H322M; Homo sapiens, NCI-H322M, 120 h): 2.1 µM | GI90 μM, NCI-H322M (NCI-H322M): 13.2 µM | GI50 (MDA-MB-231; Homo sapiens, MDA-MB-231, 120 h): 1.8 µM | GI90 μM, MDA-MB-231 (MDA-MB-231): 77.6 µM | GI50 [4]: 1000 to 2000 nM | signs of toxicity, single dose in capsules ([5]; 1000 mg/kg): no signs of toxicity | drug-related effects, single and seven consecutive doses ([5]; 1000 mg/kg/day): At no time in either dosing phase were any obvious signs of drug-related effects observed | GI50 (NCI-H23; Homo sapiens, NCI-H23, 120 h): 1.7 µM | GI90 μM, NCI-H23 (NCI-H23): 2.5 µM
